Results from ChEMBL document CHEMBL1201862, “PubChem BioAssay data set” (2004).
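96-well plates; 48 h exposure; 5 concentrations. Endpoints by linear interpolation between flanking doses. Not reached: highest tested concentration assigned. GI50: concentration for 50% inhibition of growth.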 Activity calls are given as the source filed them. Rule as the data show it: active = GI50 up to about 1.1 µM and inactive = higher.

Experiments:
Test in all cases: NCI anticancer screen, dose series, 48 h
[1] = tested on: 786-0
[2] = tested on: A549
[3] = tested on: ACHN
[4] = tested on: BT-549
[5] = tested on: CAKI-1
[6] = tested on: CCRF-CEM
[7] = tested on: COLO 205
[8] = tested on: DU-145
[9] = tested on: EKVX
[10] = tested on: HCC 2998
[11] = tested on: HCT-116
[12] = tested on: HCT-15
[13] = tested on: HL-60
[14] = tested on: HOP-62
[15] = tested on: HOP-92
[16] = tested on: HT-29
[17] = tested on: Hs-578T
[18] = tested on: IGROV-1
[19] = tested on: K562
[20] = tested on: KM12
[21] = tested on: LOX IMVI
[22] = tested on: M14
[23] = tested on: MCF7
[24] = tested on: MDA-MB-231
[25] = tested on: MDA-MB-435
[26] = tested on: MDA-N
[27] = tested on: MOLT-4
[28] = tested on: Malme-3M
[29] = tested on: NCI-H226
[30] = tested on: NCI-H460
[31] = tested on: NCI-H522
[32] = tested on: NCI/ADR-RES
[33] = tested on: OVCAR-4
[34] = tested on: OVCAR-5
[35] = tested on: OVCAR-8
[36] = tested on: PC-3
[37] = tested on: RPMI-8226
[38] = tested on: RXF 393
[39] = tested on: SF-268
[40] = tested on: SF-295
[41] = tested on: SF-539
[42] = tested on: SK-MEL-28
[43] = tested on: SK-MEL-2
[44] = tested on: SK-MEL-5
[45] = tested on: SK-OV-3
[46] = tested on: SN12C
[47] = tested on: SNB-19
[48] = tested on: SNB-75
[49] = tested on: SR
[50] = tested on: SW-620
[51] = tested on: T47D
[52] = tested on: TK-10
[53] = tested on: U-251
[54] = tested on: UACC-257
[55] = tested on: UACC-62
[56] = tested on: UO-31
[57] = tested on: NCI-H23
[58] = tested on: OVCAR-3

CN(C)c1ccc(/C=C(\C#N)c2nc(-c3cc4ccccc4oc3=O)cs2)cc1
GI50 [1]: 7.23 µM (inactive)
GI50 [2]: > 50 µM (inactive)
GI50 [3]: 13.3 µM (inactive)
GI50 [4]: 1.73 µM (inactive)
GI50 [5]: > 50 µM (inactive)
GI50 [6]: > 50 µM (inactive)
GI50 [7]: > 50 µM (inactive)
GI50 [8]: > 50 µM (inactive)
GI50 [9]: > 50 µM (inactive)
GI50 [10]: > 50 µM (inactive)
GI50 [11]: 20 µM (inactive)
GI50 [12]: > 50 µM
GI50 [13]: > 50 µM (inactive)
GI50 [14]: 5.93 µM (inactive)
GI50 [15]: 5.12 µM (inactive)
GI50 [16]: > 50 µM (inactive)
GI50 [17]: 13.7 µM (inactive)
GI50 [18]: 15.4 µM (inactive)
GI50 [19]: > 50 µM (inactive)
GI50 [20]: > 50 µM (inactive)
GI50 [21]: > 50 µM (inactive)
GI50 [22]: 15.7 µM (inactive)
GI50 [23]: > 50 µM (inactive)
GI50 [24]: 11.6 µM (inactive)
GI50 [25]: > 50 µM (inactive)
GI50 [26]: > 50 µM (inactive)
GI50 [27]: > 50 µM (inactive)
GI50 [28]: 4.65 µM (inactive)
GI50 [29]: 13.6 µM (inactive)
GI50 [30]: > 50 µM (inactive)
GI50 [31]: 6.75 µM (inactive)
GI50 [32]: 35.5 µM (inactive)
GI50 [33]: 24.9 µM (inactive)
GI50 [34]: > 50 µM (inactive)
GI50 [35]: 20.3 µM (inactive)
GI50 [36]: > 50 µM (inactive)
GI50 [37]: > 50 µM (inactive)
GI50 [38]: 12.3 µM (inactive)
GI50 [39]: 21 µM (inactive)
GI50 [40]: 10.6 µM (inactive)
GI50 [41]: 8.89 µM (inactive)
GI50 [42]: > 50 µM (inactive)
GI50 [43]: 12 µM (inactive)
GI50 [44]: > 50 µM (inactive)
GI50 [45]: 19.9 µM (inactive)
GI50 [46]: > 50 µM (inactive)
GI50 [47]: 13.2 µM (inactive)
GI50 [48]: 1.72 µM (inactive)
GI50 [49]: > 50 µM (inactive)
GI50 [50]: > 50 µM (inactive)
GI50 [51]: > 50 µM (inactive)
GI50 [52]: 8.95 µM (inactive)
GI50 [53]: 6.89 µM (inactive)
GI50 [54]: > 50 µM (inactive)
GI50 [55]: 8.61 µM (inactive)
GI50 [56]: > 50 µM (inactive)

CCOC1NC(=O)Oc2cc3ccccc3cc21 (configuration not stated)
GI50 [1]: > 100 µM (inactive)
GI50 [2]: > 100 µM (inactive)
GI50 [3]: > 100 µM (inactive)
GI50 [4]: 44.1 µM (inactive)
GI50 [6]: 36.5 µM (inactive)
GI50 [7]: > 100 µM (inactive)
GI50 [8]: > 100 µM (inactive)
GI50 [9]: > 100 µM (inactive)
GI50 [10]: > 100 µM (inactive)
GI50 [11]: 35 µM (inactive)
GI50 [12]: 34.4 µM
GI50 [13]: 31.3 µM (inactive)
GI50 [14]: > 100 µM (inactive)
GI50 [15]: 29.6 µM (inactive)
GI50 [16]: > 100 µM (inactive)
GI50 [17]: > 100 µM (inactive)
GI50 [18]: > 100 µM (inactive)
GI50 [19]: 40.6 µM (inactive)
GI50 [20]: > 100 µM (inactive)
GI50 [21]: 67.1 µM (inactive)
GI50 [22]: 39 µM (inactive)
GI50 [23]: 35.6 µM (inactive)
GI50 [24]: > 100 µM (inactive)
GI50 [25]: > 100 µM (inactive)
GI50 [26]: > 100 µM (inactive)
GI50 [27]: 34.8 µM (inactive)
GI50 [28]: > 100 µM (inactive)
GI50 [29]: > 100 µM (inactive)
GI50 [57]: > 100 µM (inactive)
GI50 [30]: > 100 µM (inactive)
GI50 [31]: > 100 µM (inactive)
GI50 [32]: 99.5 µM (inactive)
GI50 [58]: 30.2 µM (inactive)
GI50 [33]: > 100 µM (inactive)
GI50 [34]: > 100 µM (inactive)
GI50 [35]: 48.6 µM (inactive)
GI50 [36]: 29 µM (inactive)
GI50 [37]: 95.9 µM (inactive)
GI50 [38]: > 100 µM (inactive)
GI50 [39]: > 100 µM (inactive)
GI50 [40]: > 100 µM (inactive)
GI50 [41]: 68.1 µM (inactive)
GI50 [42]: > 100 µM (inactive)
GI50 [44]: > 100 µM (inactive)
GI50 [45]: > 100 µM (inactive)
GI50 [46]: > 100 µM (inactive)
GI50 [47]: 64.3 µM (inactive)
GI50 [48]: 60.5 µM (inactive)
GI50 [49]: 48.5 µM (inactive)
GI50 [50]: > 100 µM (inactive)
GI50 [51]: 39.6 µM (inactive)
GI50 [52]: > 100 µM (inactive)
GI50 [53]: 36.1 µM (inactive)
GI50 [54]: > 100 µM (inactive)
GI50 [55]: 42.6 µM (inactive)
GI50 [56]: > 100 µM (inactive)
